In patent US20150296765A1, “DEVICE FOR SPRAYING POWDERY CHEMICAL AGENT AND PROCESS FOR SPRAYING POWDERY CHEMICAL AGENT” (EARTH CHEMICAL CO., LTD., priority 2012, published 2015):
Read-outs that look alike come from different tables or passages of the source.

Tests used:
[1] = test system: Smoky-brown cockroaches; conditions: for insect pest-controlling effect (in words): summary of Tables 5 and 6
From the text: (§1) Contents of the test are as follows.
(§2) 1. A test plot having a floor area of about 9 m^2 (270 cm in length×340 cm in width×15 cm in height) as shown in FIG. 5 was set in the interior of a room of 470 cm in length×540 cm in width. The powdery chemical agent spraying device 1 in which the cylindrical body 23 is connected directly with a pump P is placed in the center of a test plot floor face 100; corrugated boxes (A), (B), and (C) each imitating a gap between a kitchen sink and a refrigerator are arranged near one side of the test plot floor face 100 (lower portion in FIG. 5); and a bait 101 and water 103 are arranged near the other side of the test plot floor face 100 (upper portion in FIG. 5). 2. Smoky-brown cockroaches are released on the test plot floor face 100 and habituated in the corrugated boxes (A), (B), and (C), and thereafter, the powdery chemical agent 30 is sprayed from the powdery chemical agent spraying device 1 in which a discharge port of the pump P set up at a pressure of 100 kPa is connected directly with the cylindrical body 23. (Number of test insects: 49 females and 48 males for dinotefura and 50 females and 49 males for d.d-T-cyphenothrin) 3. […] 4. A knockdown (KD) rate and a mortality rate at every passage of a time based on the count number are calculated.
Device in which the discharge port of the pump (rolling pump, manufactured by Okenseiko Co., Ltd.; two pumps of Model Nos. P30C02R8516 and M42C02R8516 coupled with each other) P is connected directly with the cylindrical body 23 (In order to confirm a breaking pressure of each of the sealing films 25 and 27, a pressure gauge G is placed therebetween.)
Cylindrical body 23: The same as the cylindrical body 23 used in the measuring test of falling amount of chemical agent on floor face of Example 1.
Sealing films 25 and 27: The same as the sealing films 25 and 27 used in the measuring test of falling amount of chemical agent on floor face of Example 1.
(§3) Corrugated boxes (A) and (B): Two holes (2 cm×2 cm) through which the cockroach can come and go are opened in front of a corrugated box of 50 cm in length×50 cm in width×25 cm in height.
(§4) Corrugated box (C): The front and the rear of a corrugated box of 50 cm in length×50 cm in width×3 cm in height are fully opened.

[2] = test system: Smoky-brown cockroaches
From the text: as §1
as §2, with “FIG. 4” for “FIG. 5”, “1” for “1 in which the cylindrical body 23 is connected directly with a pump P”, “FIG. 4);” for “FIG. 5);”, “FIG. 4).” for “FIG. 5).”, “2. 28 females and 29 males of smoky-brown” for “2. Smoky-brown”, “device 1. […]” for “device 1 in which a discharge port of the pump P set up at a pressure of 100 kPa is connected directly with the cylindrical body 23. (Number of test insects: 49 females and 48 males for dinotefura and 50 females and 49 males for d.d-T-cyphenothrin)”
Container body 11: PET bottle having a capacity of 280 mL
Cylindrical body 23: Acrylic pipe having an inside diameter of 7 mm and a length of 50 mm
Sealing film 25: Parafilm (trade name: […] M, 4 inch×125 feet)
Sealing film 27: Parafilm (trade name: […] M, 4 inch×125 feet)
The Parafilm was wound around each end part of the cylindrical body 23 to prepare the sealing films 25 and 27, respectively.
The Parafilm was wound without being stretched and adjusted such that a pressure at the time of breaking of each of the sealing films 25 and 27 was 100 kPa.
Sodium bicarbonate 41: 3.8 g
as §3, §4

SMILES	insect pest-controlling effect (in words) [1]	KD and mortality ([1]; passage of time 2 hr) [%]	KD ([1]; passage of time 14.5 hr) [%]	KD and mortality ([1]; passage of time 14.5 hr) [%]	KD and mortality ([1]; passage of time 16 hr) [%]	KD and mortality ([1]; passage of time 23 hr) [%]	KD ([1]; passage of time 43 hr) [%]	KD and mortality ([1]; passage of time 43 hr) [%]	KD ([1]; passage of time 48 hr) [%]	KD and mortality ([1]; passage of time 48 hr) [%]	KD and mortality ([1]; passage of time […]) [%]	KD and mortality ([2]; passage of time 3 hr) [%]	KD and mortality ([2]; passage of time 6 hr) [%]	KD ([2]; passage of time 18 hr) [%]	KD and mortality ([2]; passage of time 18 hr) [%]	KD and mortality ([2]; passage of time 24 hr) [%]	KD ([2]; passage of time 32 hr) [%]	KD and mortality ([2]; passage of time 32 hr) [%]	KD ([2]; passage of time 48 hr) [%]	KD and mortality ([2]; passage of time 48 hr) [%]
CC(C)=CC1C(C(=O)OC(C#N)c2cccc(Oc3ccccc3)c2)C1(C)C (stereo not drawn) [d.d-T-cyphenothrin]	a high insect pest-exterminating effect could be obtained	–	–	–	–	–	–	–	–	–	–	–	–	–	–	–	–	–	–	–
CN/C(=N/CC1CCOC1)N[N+](=O)[O-] (stereo not drawn) [Chemical agent B, dinotefuran]	a high effectiveness is obtained	3	43	59	71	82	18	96	15	96	2	2	9	25	40	88	9	95	7	96
